Inhibition and IC50 data for 3 compounds are collected here from patent US10988466B2, “Heterocyclic derivatives useful as SHP2 inhibitors” (Jacobio Pharmaceuticals Co., Ltd., priority 2017, dated 2021).

For assay [1], the target named is T1, SHP2 (Homo sapiens, UniProt Q06124).
T1 sequence (Q06124 1-593): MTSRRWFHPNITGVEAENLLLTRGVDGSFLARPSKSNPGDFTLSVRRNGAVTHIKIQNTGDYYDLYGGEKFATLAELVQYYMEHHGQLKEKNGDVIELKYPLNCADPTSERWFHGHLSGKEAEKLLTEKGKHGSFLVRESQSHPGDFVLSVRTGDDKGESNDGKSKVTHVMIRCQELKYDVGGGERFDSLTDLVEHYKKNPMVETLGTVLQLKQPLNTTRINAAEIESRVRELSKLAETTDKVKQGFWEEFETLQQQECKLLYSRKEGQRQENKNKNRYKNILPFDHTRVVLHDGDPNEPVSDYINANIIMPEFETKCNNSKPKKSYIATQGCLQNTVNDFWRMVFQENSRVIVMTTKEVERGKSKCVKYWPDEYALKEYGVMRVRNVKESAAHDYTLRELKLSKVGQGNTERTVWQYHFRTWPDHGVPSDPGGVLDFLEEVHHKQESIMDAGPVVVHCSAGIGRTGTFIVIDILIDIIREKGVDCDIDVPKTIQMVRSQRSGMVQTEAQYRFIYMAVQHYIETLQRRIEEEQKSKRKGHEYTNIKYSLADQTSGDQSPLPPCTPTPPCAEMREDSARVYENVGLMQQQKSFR
Kind of assay: biochemical. The conditions noted are these: read-out: SHP2 inhibition (%)@0.1 μM.

Another assay concerns MV-4-11. Kind of assay: Cell proliferation assay (MTS/PMS). Type of assay: cell-based. As to conditions: Homo sapiens, MV4-11.
The target of assay [2] is T1, SHP2. Put plainly: Phosphatase assays (IC50), DiFMUP substrate.

Read-outs that look alike come from different tables or passages of the source.

On to `Nc1nc(N2CCC3(CC2)Cc2sc(Cl)nc2[C@H]3N)cnc1Sc1ccnc(N)c1Cl` [Example 44, (S)-1′-(6-amino-5-((2-amino-3-chloropyridin-4-yl)thio)pyrazin-2-yl)-2-chloro-4,6-dihydro-spiro[cyclopenta[d]thiazole-5,4′-piperidin]-4-amine], for which the inhibition at 0.1 µM at SHP2 [1] amounted to 88%. For the same compound, the IC50 worked out at 7.4 nM in the assay on MV-4-11 (MV-4-11 cell proliferation, MTS/PMS readout at day 8, compounds added 24 hours after plating, read-out: IC50) and 4 nM at SHP2 [2].

For `COc1ccc2c(c1)[C@@H](N)C1(CCN(c3cnc(Sc4ccnc(N)c4Cl)c(N)n3)CC1)C2` [Example 5, (S)-1′-(6-amino-5-((2-amino-3-chloropyridin-4-yl)thio)pyrazin-2-yl)-6-methoxy-1,3-dihydro spiro[indene-2,4′-piperidin]-1-amine], the inhibition at 0.1 µM on SHP2 [1] came out at 84%. Besides, the figures for the IC50 in the assay with MV-4-11 and against SHP2 [2] were 4.8 nM and 6 nM, respectively.

As for `Nc1nc(N2CCC3(CC2)Cc2ccccc2[C@H]3N)cnc1Sc1ccnc(N)c1Cl` [Example 2, (S)-1′-(6-amino-5-((2-amino-3-chloropyridin-4-yl)thio)pyrazin-2-yl)-1,3-dihydrospiro[indene-2,4′-piperidin]-1-amine], the inhibition at 0.1 µM on SHP2 [1] worked out at 75%. Besides, the IC50 in the assay with MV-4-11 came to 2.7 nM; on SHP2 [2] (SHP2 0.5 nM activated with dPEG8 peptide, DiFMUP 12 μM, 30 min), 4 nM.

For orientation: inhibition means the drop in the measured response relative to a control, in per cent. Broadly, the IC50 is the concentration at which inhibition is half-maximal.
